In US8710043B2, “TRPM8 antagonists and their use in treatments” (Amgen Inc., priority 2011, dated 2014):

target: T1, human TRPM8 (Homo sapiens, UniProt Q7Z2W7); assay: Luminescence readout assay for measuring intracellular calcium, icilin activation; format: cell-based; conditions: CHO cells expressing human TRPM8, aequorin luminescence, 1 μM icilin activation; read-out: hTRPM8 IC50
T1 construct: expressed in transfected cells; host or cells: Chinese hamster ovary (CHO) cells, T-REx tetracycline-inducible system, co-transfected with aequorin
T1 sequence (Q7Z2W7 whole entry): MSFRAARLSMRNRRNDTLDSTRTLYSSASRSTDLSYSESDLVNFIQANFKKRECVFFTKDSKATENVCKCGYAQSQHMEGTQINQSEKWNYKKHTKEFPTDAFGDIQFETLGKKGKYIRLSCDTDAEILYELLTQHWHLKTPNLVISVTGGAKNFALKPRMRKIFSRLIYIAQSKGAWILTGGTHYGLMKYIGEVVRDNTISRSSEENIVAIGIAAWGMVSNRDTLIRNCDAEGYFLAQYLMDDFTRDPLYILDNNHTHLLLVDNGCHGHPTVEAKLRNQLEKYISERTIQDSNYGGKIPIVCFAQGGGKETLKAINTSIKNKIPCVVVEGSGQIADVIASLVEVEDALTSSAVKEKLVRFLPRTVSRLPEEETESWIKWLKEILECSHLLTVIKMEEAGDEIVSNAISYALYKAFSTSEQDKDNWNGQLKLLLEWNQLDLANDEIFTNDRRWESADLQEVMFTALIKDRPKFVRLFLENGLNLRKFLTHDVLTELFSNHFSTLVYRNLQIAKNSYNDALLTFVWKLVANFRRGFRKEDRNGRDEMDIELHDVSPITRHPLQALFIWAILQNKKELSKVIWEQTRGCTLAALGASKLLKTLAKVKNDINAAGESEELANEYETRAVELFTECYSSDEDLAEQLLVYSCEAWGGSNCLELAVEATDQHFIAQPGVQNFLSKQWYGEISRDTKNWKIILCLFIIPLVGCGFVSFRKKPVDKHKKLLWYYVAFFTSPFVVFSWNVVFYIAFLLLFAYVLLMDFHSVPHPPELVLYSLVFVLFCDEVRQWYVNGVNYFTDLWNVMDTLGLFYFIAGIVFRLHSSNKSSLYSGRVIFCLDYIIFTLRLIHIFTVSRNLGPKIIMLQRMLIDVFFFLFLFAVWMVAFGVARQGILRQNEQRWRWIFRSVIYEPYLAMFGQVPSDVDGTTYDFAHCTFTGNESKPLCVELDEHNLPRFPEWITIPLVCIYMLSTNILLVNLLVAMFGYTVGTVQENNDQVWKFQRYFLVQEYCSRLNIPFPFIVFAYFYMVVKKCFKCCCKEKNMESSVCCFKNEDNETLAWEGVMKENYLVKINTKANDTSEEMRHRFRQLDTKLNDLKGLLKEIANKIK
Procedure: Luminescence Readout Assay for Measuring Intracellular Calcium.
A stable Chinese hamster ovary cell line expressing human TRPM8 was generated using tetracycline inducible T-REx™ expression system from Invitrogen, Inc. (Carlsbad, Calif.). […] Twenty four hours before the assay, cells were seeded in 96-well plates and TRPM8 expression was induced with 0.5 μg/mL tetracycline. […] Potential antagonists were added 2.5 min prior to the addition of agonist, 1 μM icilin, 100 μM L-menthol, or 1 min prior to the addition of cold buffer (<10° C.). The luminescence was measured by a CCD camera based FLASH-luminometer built by Amgen, Inc. A cooling device attached to FLASH luminometer was used for cold activation.

Row | SMILES | IC50
1 | O=C(N[C@@H](c1ccc(C(F)(F)F)cc1)c1ncccc1C(F)(F)F)c1ccc2c(c1)C(=O)N(c1ccccn1)C2=O [Example 99, (S)-1,3-dioxo-2-(pyridin-2-yl)-N-((4-(trifluoromethyl)phenyl)(3-(trifluoromethyl)pydin-2-yl)methyl)isoindoline-5-carboxamide 2,2,2-trifluoroacetate] | 0.129 µM
2 | O=C1CCc2cc(C(=O)N[C@@H](c3ccc(OC(F)(F)F)cc3)c3ncccc3F)ccc2N1 [Example 352, (S)-N-((3-fluoropyridin-2-yl)(4-(trifluoromethoxy)phenyl)methyl)-2-oxo-1,2,3,4-tetrahydroquinoline-6-carboxamide] | 0.0188 µM
3 | COc1cccc(C(=O)NC(c2ccc(C(F)(F)F)cc2)c2ncccc2F)c1 (stereo not drawn) [Example 214, N-((3-fluoropyridin-2-yl)(4-(trifluoromethyl)phenyl)methyl)-3-methoxybenzamide] | 0.121 µM
4 | Cn1cc(C(=O)N[C@@H](c2ccc(OC(F)(F)F)c(F)c2)c2ccccn2)ccc1=O [Example 294, (S)-N-((3-fluoro-4-(trifluoromethoxy)phenyl)(pyridin-2-yl)methyl)-1-methyl-6-oxo-1,6-dihydropyridine-3-carboxamide] | 0.0145 µM
5 | Cc1cc(C(=O)N[C@@H](c2ccc(C(F)(F)F)cc2)c2ncccc2F)ccn1 [Example 53, (S)-N-((3-fluoropyridin-2-yl)(4-(trifluoromethyl)phenyl)methyl)-2-methylisonicotinamide] | 0.0455 µM
6 | O=C1CNc2cc(C(=O)N[C@@H](c3ccc(C(F)(F)F)cc3)c3ncccc3F)ccc2O1 [Example 75, (S)-N-((3-fluoropyridin-2-yl)(4-(trifluoromethyl)phenyl)methyl)-2-oxo-3,4-dihydro-2H-benzo[b][1,4]oxazine-6-carboxamide] | 0.0391 µM
7 | O=C(N[C@@H](c1ccc(C(F)(F)F)cc1)c1ncccc1C(F)(F)F)c1cnc2ccccc2c1 [Example 230, (S)-N-((4-(trifluoromethyl)phenyl)(3-(trifluoromethyl)pyridin-2-yl)methyl)quinoline-3-carboxamide] | 0.0837 µM
8 | O=C(N[C@@H](c1ccc(C(F)(F)F)cc1)c1ncccc1F)c1cc2n(n1)CCCO2 [Example 320, (S)-N-((3-fluoropyridin-2-yl)(4-(trifluoromethyl)phenyl)methyl)-6,7-dihydro-5H-pyrazolo[5,1-b][1,3]oxazine-2-carboxamide] | 0.132 µM
9 | COC(=O)c1ccc(C(=O)N[C@@H](c2ccc(OC(F)(F)F)c(F)c2)c2ccccn2)nc1 [Example 406, (S)-methyl 6-(((3-fluoro-4-(trifluoromethoxy)phenyl)(pyridin-2-yl)methyl)carbamoyl)nicotinate] | 0.241 µM
10 | Cc1ccc(C(=O)N[C@@H](c2ccc(C(F)(F)F)cc2)c2ncccc2F)cn1 [Example 52, (S)-N-((3-fluoropyridin-2-yl)(4-(trifluoromethyl)phenyl)methyl)-6-methylnicotinamide] | 0.0401 µM
11 | O=C(N[C@@H](c1ccc(C(F)(F)F)cc1)c1ncccc1C(F)(F)F)c1cc2ccccc2s1 [Example 222, (S)-N-((4-(trifluoromethyl)phenyl)(3-(trifluoromethyl)pyridin-2-yl)methyl)benzo[b]thiophene-2-carboxamide] | 0.119 µM
12 | COC(=O)c1ccc(C(=O)N[C@@H](c2ccc(OC(F)(F)F)c(F)c2)c2ncccc2F)nc1 [Example 398, (S)-methyl 6-(((3-fluoro-4-(trifluoromethoxy)phenyl)(3-fluoropyridin-2-yl)methyl)carbamoyl)nicotinate] | 0.189 µM
13 | O=C(N[C@@H](c1ccc(C(F)(F)F)cc1)c1ncccc1C(F)(F)F)c1ccc(F)cc1 [Example 183, (S)-4-fluoro-N-((4-(trifluoromethyl)phenyl)(3-(trifluoromethyl)pyridin-2-yl)methyl)benzamide] | 0.0396 µM
14 | CCn1cc(C(=O)N[C@@H](c2ccc(C(F)(F)F)cc2)c2ncccc2F)ccc1=O [Example 364, (S)-1-ethyl-N-((3-fluoropyridin-2-yl)(4-(trifluoromethyl)phenyl)methyl)-6-oxo-1,6-dihydropyridine-3-carboxamide] | 0.0158 µM
15 | O=C(N[C@@H](c1ccc(C(F)(F)F)cc1)c1ncccc1C(F)(F)F)c1ccc(O)cn1 [Example 64, (S)-5-hydroxy-N-((4-(trifluoromethyl)phenyl)(3-(trifluoromethyl)pyridin-2-yl)methyl)picolinamide] | 0.02 µM
16 | Nc1nc(C(=O)N[C@@H](c2ccc(C(F)(F)F)cc2)c2ncccc2C(F)(F)F)cs1 [Example 136, (S)-2-amino-N-((4-(trifluoromethyl)phenyl)(3-(trifluoromethyl)pyridin-2-yl)methyl)thiazole-4-carboxamide 2,2,2-trifluoroacetate] | 0.121 µM
17 | O=C(Cc1ccncc1)N[C@@H](c1ccc(OC(F)(F)F)c(F)c1)c1ncccc1F [Example 290, (S)-N-((3-fluoro-4-(trifluoromethoxy)phenyl)(3-fluoropyridin-2-yl)methyl)-2-(pyridin-4-yl)acetamide] | 0.944 µM

Row | SMILES | IC50
18 | O=C1Cc2ccc(C(=O)N[C@@H](c3ccc(C(F)(F)F)cc3)c3ncccc3C(F)(F)F)cc2N1 [Example 69, (S)-2-oxo-N-((4-(trifluoromethyl)phenyl)(3-(trifluoromethyl)pyridin-2-yl)methyl)indoline-6-carboxamide] | 0.0129 µM
19 | O=C(NC(c1ccc(F)cc1)c1ccc(OC(F)(F)F)c(F)c1)c1ccc(=O)[nH]c1 (stereo not drawn) [Example 411, N-((3-fluoro-4-(trifluoromethoxy)phenyl)(4-fluorophenyl)methyl)-6-oxo-1,6-dihydropyridine-3-carboxamide] | 0.14 µM
20 | COc1ccccc1C(=O)N[C@@H](c1ccc(C(F)(F)F)cc1)c1ncccc1C(F)(F)F [Example 176, (S)-2-methoxy-N-((4-(trifluoromethyl)phenyl)(3-(trifluoromethyl)pyridin-2-yl)methyl)benzamide] | 0.0219 µM
21 | Cn1cc(C(=O)N[C@@H](c2cc(F)cc(C(F)(F)F)c2)c2ncccc2F)ccc1=O [Example 328, (S)-N-((3-fluoro-5-(trifluoromethyl)phenyl)(3-fluoropyridin-2-yl)methyl)-1-methyl-6-oxo-1,6-dihydropyridine-3-carboxamide] | 1.06 µM
22 | O=C(CC1CCOC1)N[C@@H](c1ccc(C(F)(F)F)cc1)c1ncccc1C(F)(F)F (stereo partly drawn) [Example 157, 2-(THF-3-yl)-N-((S)-(4-(trifluoromethyl)phenyl)(3-(trifluoromethyl)pyridin-2-yl)methyl)acetamide] | 0.716 µM
23 | O=C(N[C@@H](c1ccc(C(F)(F)F)cc1)c1ncccc1C(F)(F)F)c1ccc(-c2nnn[nH]2)cc1 [Example 141, (S)-4-(1H-tetrazol-5-yl)-N-((4-(trifluoromethyl)phenyl)(3-(trifluoromethyl)pyridin-2-yl)methyl)benzamide] | 0.16 µM
24 | O=C(N[C@@H](c1ccc(OC(F)(F)F)c(F)c1)c1ccccn1)c1ccc2[nH]cnc2c1 [Example 393, (S)-N-((3-fluoro-4-(trifluoromethoxy)phenyl)(pyridin-2-yl)methyl)-1H-benzo[d]imidazole-5-carboxamide] | 0.0061 µM
25 | Cc1cccnc1[C@@H](NC(=O)c1ccc(=O)n(C)c1)c1ccc(C(F)(F)F)cc1 [Example 83, (S)-1-methyl-N-((3-methylpyridin-2-yl)(4-(trifluoromethyl)phenyl)methyl)-6-oxo-1,6-dihydropyridine-3-carboxamide 2,2,2-trifluoroacetate] | 0.0392 µM
26 | O=C(N[C@@H](c1ccc(C(F)(F)F)cc1)c1ncccc1F)c1ccccc1 [Example 180, (S)-N-((3-fluoropyridin-2-yl)(4-(trifluoromethyl)phenyl)methyl)benzamide] | 0.0297 µM
27 | O=C(N[C@@H](c1ccc(C(F)(F)F)cc1)c1ncccc1C(F)(F)F)c1ccccc1I [Example 118, (S)-2-iodo-N-((4-(trifluoromethyl)phenyl)(3-(trifluoromethyl)pyridin-2-yl)methyl)benzamide] | 0.0905 µM
28 | Cc1cc([C@H](NC(=O)c2ccc(=O)[nH]c2)c2ncccc2F)ccc1F [Example 338, (S)-N-((4-fluoro-3-methylphenyl)(3-fluoropyridin-2-yl)methyl)-6-oxo-1,6-dihydropyridine-3-carboxamide] | 0.264 µM
29 | Nc1n[nH]c(C(=O)N[C@@H](c2ccc(C(F)(F)F)cc2)c2ncccc2C(F)(F)F)n1 [Example 159, (S)-3-amino-N-((4-(trifluoromethyl)phenyl)(3-(trifluoromethyl)pyridin-2-yl)methyl)-1H-1,2,4-triazole-5-carboxamide] | 2.21 µM
30 | O=C(N[C@@H](c1ccc(C(F)(F)F)cc1)c1ncccc1C(F)(F)F)c1cccs1 [Example 138, (S)-N-((4-(trifluoromethyl)phenyl)(3-(trifluoromethyl)pyridin-2-yl)methyl)thiophene-2-carboxamide] | 0.0464 µM
31 | CC(C)(C)Cc1cccnc1[C@@H](NC(=O)c1ccc2ncccc2c1)c1ccc(C(F)(F)F)cc1 [Example 236, (S)-N-((3-neopentylpyridin-2-yl)(4-(trifluoromethyl)phenyl)methyl)quinoline-6-carboxamide] | 0.239 µM
32 | O=C(Cc1ccccn1)N[C@@H](c1ccc(OC(F)(F)F)c(F)c1)c1ncccc1F [Example 288, (S)-N-((3-fluoro-4-(trifluoromethoxy)phenyl)(3-fluoropyridin-2-yl)methyl)-2-(pyridin-2-yl)acetamide] | 0.139 µM
33 | CC#Cc1cccnc1[C@@H](NC(=O)c1ccccc1)c1ccc(C(F)(F)F)cc1 [Example 98, (S)-N-((3-(prop-1-yn-1-yl)pyridin-2-yl)(4-(trifluoromethyl)phenyl)methyl)benzamide] | 0.125 µM
